Measurements taken from patent publication US9446081B2, “Pharmaceutical composition for preventing and treating complications of diabetes containing a traditional oriental medicine extract or a fraction thereof as an active ingredient” (KOREA INSTITUTE OF ORIENTAL MEDICINE, priority 2011, dated 2016).

Experiments:
[1] = test system: spontaneous diabetic Torii (SDT) rats; test: Diabetic nephropathy in type II diabetic animal model; format: in vivo, rat; conditions: oral once a day 16 weeks
Experimental: (§1) To investigate the effect of the extract of Homonoia riparia Lour. on the prevention and treatment of diabetic complications in spontaneous diabetic Torii (SDT) rats, the type II diabetic animal model, the extract of Homonoia riparia Lour. was orally administered to the animal for 16 weeks. 10-week old male SDT rats (CLEA Japan Inc., Tokyo, Japan) were adapted for 1 week, and then continued to raise for 15 weeks until the blood sugar level reached 300 mg/dl. Feed and water were provided freely. 15 weeks later, the rats were grouped into 5 group (8 rats per group), to which the extract of Homonoia riparia Lour. (HR) and the control drug MET were administered orally once a day. The experimental groups included the normal group (NOR), the diabetic group (DM), the metformin (350 mg/kg) treated diabetic group (MET), the Homonoia riparia Lour. extract (100 mg/kg) treated diabetic group (HR-100), and the Homonoia riparia Lour. extract (250 mg/kg) treated diabetic group (HR-250). Each group was administered with the test samples orally once a day for 16 weeks. Urine was picked up 24 hours before autopsy. The organs extracted by autopsy were stored at −80° C.
To investigate the effect of the extract of Homonoia riparia Lour. on the functions of the kidney suffering from chronic diabetes, urine was taken from the animal model 24 hours before the autopsy, with which renal indices {proteinuria, albuminuria, and glomerular filtration rate (Ccr)}, and glycation products (AGES and CML) were quantified. ELISA was performed to measure proteinuria, albuminuria, glomerular filtration rate, AGEs, CML, and podocyte (synaptopodin and WT-1). Particularly, the urine sample was mixed with coating buffer (50 mM carbonate buffer, pH 9.6) to make the final volume to be 100 μl (1:2), which was distributed in a 96-well plate. The plate stood at 37° C. for 3 hours and then washed with 0.05% PBST three times, followed by blocking with 3% skim milk. The plate stood as it was for 1 more hour and then washed. AGEs (Transgenic, JAPAN), CML (Transgenic, JAPAN), albumin, synaptopodin, and WT-1 (Santa Cruz, USA) antibodies were diluted respectively at the ratio of 1:1000, which were loaded in each well of the plate by 100 μl. The plate stood at 37° C. for 2 hours, and washed with 0.05% PBST. HRP-conjugated secondary antibody was loaded in each well of the plate by 100 μl, followed by reacting at 37° C. for 1 hour. 100 μl of the substrate, 3,3′,5,5′-tetramethylbenzidine (TMB) in 0.05% PBST was added to each well of the plate. 5 minutes later, the reaction was terminated by adding 1M H2SO4 solution (100 μl/well). Then OD was measured with an ELISA reader.
Immunological staining was performed as follows. After deparaffinization and hydration, the slide was reacted in 3% H2O2 solution for 10 minutes to deactivate endogenous peroxidase activity therein. Then, the slide was washed with PBS containing 0.05% tween 20 three times. To eliminate non-specific reaction, the slide was blocked with 5% AFB (animal free bock). The primary antibodies AGEs (Transgenic, Japan) and CML (Transgenic, Japan) were diluted (1:1000) and treated to the slide for 1 hour or overnight. After washing with PBS for 1 hour, the slide was treated with labeled streptavidin biotin (LSAB) kit (Dako, USA), followed by color development by using DAB (Dako, USA). Observation was performed under optical microscope.
The kidney was extracted from the animal model during the autopsy, which was fixed in 10% neutralized formalin for overnight. […]

[2] = test system: spontaneous diabetic Torii (SDT) rats; test: Inhibition of diabetic retinopathy in type II diabetic animal model; format: in vivo, rat; conditions: oral once a day 16 weeks, metformin 350 mg/kg
Experimental: as §1
When hyperglycemic state continues, retinal vessels in eyeball become mal-functioning to cause blood-retinal barrier breakage. […]

[3] = extract 100 or 250 mg/kg, metformin 350 mg/kg, vs diabetic group (DM), FIG. 6

## CN(C)C(=N)N=C(N)N [metformin]
[1]; extract 100 or 250 mg/kg dose-dependently, metformin 350 mg/kg (not so significant), FIG. 9
  glomerular hypertrophy and mesangial matrix expansion / morphological changes (PAS staining): decreased
[1]; extract 100 or 250 mg/kg, metformin 350 mg/kg, FIG. 7
  AGEs and CML in urine: not much reduced
[1]; [3]
  albuminuria: significantly reduced
  proteinuria: higher
[1]; extract 100 or 250 mg/kg, metformin 350 mg/kg, vs diabetic group (DM), FIG. 10
  collagen deposition in glomerulus (Masson's trichrome staining): not much different
[2]; extract 100 or 250 mg/kg (HR-100, HR-250), FIG. 2
  blood-retinal barrier breakage (fluorescein-dextran flown out of retinal vessels, non-perfusion area): fluorescent material was merely observed
[2]; extract 100 or 250 mg/kg, vs diabetic group, FIG. 3
  pericyte loss, acellular capillary formation and closed vessels in retina: significantly decreased
